Measured values taken from patent US11617773B2, “Elimination of colonic bacterial driving lethal inflammatory cardiomyopathy” (Eligo Bioscience, priority 2020, dated 2023).
No end group written: not given here.

Legend:
Rag1^−/− mice = assay: Adoptive transfer myocarditis model with antibiotics treatment; format: in vivo, mouse; settings: for accumulation of TCR-transgenic CD4^+ T cells in hearts / cardiac inflammation by flow cytometry (heart-infiltrating CD45^+ cells): day 28
Protocol: For the generation of single-cell suspensions, spleens and lymph nodes were collected in BSS and were mechanically disrupted on a metallic grid. To confirm the presence of heart-infiltrating cells, mice received 2 μg of anti-CD45.2 BV510 or anti-Thy 1.1 PE i.v. 5 min before being euthanized in the indicated experiments. Euthanized animals were perfused with 20 ml PBS and small heart tissue pieces were placed into a 6-well dish filled with RPMI 1640 medium containing 2% FCS, 20 mM HEPES (Lonza), 1 mg/ml collagenase 0 (Sigma) and 25 μg/ml DNasel (Applichem) and incubated at 37° C. under continuous stirring. The remaining tissue pieces were mechanically disrupted and mononuclear cells were purified by centrifugation (25 min at 800×g, 4° C.) on a 30-70% Percoll gradient (GE Healthcare). For isolation of colonic lamina propria cells, colons were flushed and tissue was harvested and incubated three times for 15 min at room temperature under constant agitation with BSS containing 5% FCS (Lonza), 5 mM EDTA (Sigma), 10 mM HEPES (Sigma) and 1 mM OTT in order to dissociate the epithelial layer. The tissue was subsequently washed with SS containing 10 mM HEPES and digested three times for 20 min at 37° C. with 120 μg/ml collagenase P (Roche), 25 μg/ml DNAse I (Applichem) and 5 μg/ml Dispase I (Roche) in RPMI-1640; after obtaining a single cell suspension, cells were purified by a 30-70% Percoll gradient. Single-cell suspensions were first stained with the fixable viability dye Zombie Aqua (Biolegend) and incubated for 30 min on ice; after washing, cells were incubated for 20 min at 4° C. in PBS containing 2% FCS and 10 mM EDTA with fluorochrome-labeled antibodies (Table 5). Cells were acquired with a BD LSRFortessa (BD Biosciences) and analyzed using FlowJo software (Treestar Inc) following stablished guidelines (32). […] Cells were stimulated with 0.25 μg of the different peptides (see below), or phorbol myristate acetate (50 ng/ml; Sigma)/ionomycin (500 ng/ml; Sigma) (PMA/l) as positive control, or were left untreated. After surface molecule labelling, cells were stained with the fixable viability dye Zombie Aqua (Biolegend). Cells were fixed with cytofix-cytoperm (BD Biosciences) for 20 min. […] Samples were measured using a BD LSR Fortessa (BD Biosciences). Data were analyzed using FlowJo software (Tree Star, Inc.). […] Red blood cells were lysed by osmotic shock and 10^6 splenocytes were injected intravenously in 4 wk mice in the lateral tail vein of Rag1^−/− mice. Seven days after adoptive transfer, mice were bled to confirm CD4^+ T cell expansion. Disease activity scores and analysis of T cell activation in the heart and colonic lamina propria were performed at day 28 post adoptive transfer.

TCRM T cells = assay: Proliferation of transferred TCRM CD4^+ T cells after injection of peptide loaded dendritic cells; format: in vivo, mouse; settings: TCRM CD4^+ T cells transferred into BALB/c mice
Text: FIGS. 7A-I. Specificity and immune interaction of Bacteroides mimic peptide-specific CD4^+ T cells. (FIG. 7A) In vitro proliferation of CD4^+ T cells from TCRM mice or DO11.10 mice measured by CFSE dilution after re-stimulation with MYH6 or Bacteroides β-galactosidase peptide or ovalbumin peptide at indicated concentration (representative histograms from 1 out of 2 experiments) (FIG. 7B) Dendritic cells loaded with MYH6 or β-gal peptide from Bacteroides at the indicated concentration were co-cultured in vitro with CD4^+ T cells from TCRM mice. Maximum proliferation of CD4^+ T cells was analyzed by flow cytometry and effective concentration 50 (EC50) for each peptide was determined. (FIG. 7C) CD4^+ T cells from TCRM mice were adoptively transferred into BALB/c mice. Proliferation of CD4^+ T cells from TCRM mice was determined ex vivo by CFSE dilution after injection of peptide loaded dendritic cells (n=3). (FIG. 7D-FIG. 7E) Colonization of GF TCRM mice with SPF microbiota or B. thetaiotaomicron or E. coli. […] Fold increase values were calculated using the cytokine production in GF mice as baseline (mean±SEM). […] (FIG. 7H) experimental dosing, (FIG. 7I) representative dot plots left and quantification right of IgA bound bacteria; background was set using samples from Rag^−/− mice (mean±SEM). […]

[1] = test system: CD4^+ T cells from heart and colon of TCRM mice; assay: Ex vivo restimulation and cytokine production of murine T cells; format: cell-based, mouse
Protocol: For assessment of ex vivo production of IFN-γ and IL-17, 10^6 lymphocytes were incubated for 3.5 h at 37° C. in 96-well round-bottom plates in 200 μL of RPMI per 5% FCS supplemented with 10 μg/mL brefeldin A (Sigma). Cells were stimulated with 0.25 μg of the different peptides (see below), or phorbol myristate acetate (50 ng/ml; Sigma)/ionomycin (500 ng/ml; Sigma) (PMA/l) as positive control, or were left untreated. After surface molecule labelling, cells were stained with the fixable viability dye Zombie Aqua (Biolegend). Cells were fixed with cytofix-cytoperm (BD Biosciences) for 20 min. Fixed cells were incubated at 4° C. for 40 min with permeabilization buffer (2% FCS, 0.5% saponin in PBS) containing antibodies to CD3, CD4, IFN-γ and IL-17A. Samples were measured using a BD LSR Fortessa (BD Biosciences). Data were analyzed using FlowJo software (Tree Star, Inc.).

[2] = test system: CD4^+ T cells from TCRM mice; assay: Ex vivo proliferation assay (CFSE dilution) after peptide re-stimulation; format: cell-based, mouse; settings: 3 days
Protocol: Spleen cells were labelled with 10 μl of 5 mM carboxyfluorescein succinimidyl ester (CSFE, dissolved in DMSO) (Molecular Probes) in 10 ml of PBS for 10 min at 37° C. The staining reaction was stopped with 1 mL FCS (Lonza), followed by washing with PBS. A total of 2×10^5 splenocytes/well were seeded in 96-well round-bottom plate and MYH6614-629 (RSLKLMATLFSTYASADR, SEQ ID NO: 10) or Bacteroides β-galactosidase11-25 (TFLILMAALTATFASAQK, SEQ ID NO: 11), Enterobacter cysteine hydrolase10-27 (LLIGMMSTFSTYASAQET, SEQ ID NO: 12) or OVA323-339 (ISQAVHAAHAEINEAGR, SEQ ID NO: 13) peptide was added at the indicated concentrations. CSFE dilution was assessed by flow cytometry after 3 days of incubation at 37° C. All peptides were synthetized by Genscript with >80% of purity.

[3] = test system: peripheral blood mononuclear cells; assay: IFN-γ ELISPOT, human T cell stimulation; format: cell-based; settings: Micro-DCM patients compared to healthy controls
Protocol: IFN-γ ELISPOT was performed as described by Lv et. al. with minor modifications (7), Briefly, PBMCs from patients and healthy volunteers were isolated on density gradients. PBMCs were adjusted to 2×10^6 cells/ml in 0.5 ml of complete IVS medium supplemented with 8% of human serum. Cells were stimulated for 48 h with 0.25 μg/ml of the indicated peptide or left untreated as medium control. After incubation, cells were washed and re-suspended in 0.3 ml of RPMI/10% FOS and approximately 5×10^5 cells/0.1 ml were dispensed in duplicates into previously coated and blocked ELISPOT plates (IFN-γ base kit, MABTECH). After 24 h of incubation at 37° C. the ELISPOT plates were washed and developed as indicated by the manufacturer. Plates were counted using an ELISPOT reader and analyzed with the software ELISPOT 3.1SR (AID). Number of specific IFN-γ positive cells was calculated as the mean of the duplicates minus the mean of the medium control.

B. thetaiotaomicron = assay: Quantitative B. thetaiotaomicron PCR in feces; format: in vivo, Bacteroides thetaiotaomicron; settings: Rag1^−/− recipients, qPCR
Protocol: Bacterial genomic DNA was extracted using a commercial kit (QIAamp DNA Stool Mini Kit) with minor modifications. Glass beads (Sigma, G4649-10G) were used for an optimal disruption of fecal content and an additional extraction step was introduced after incubation of bacteria with a lysis buffer (20 mg/ml lysozyme—Sigma 62970-5G-F, 2 mM EDTA, 1.2% Triton, 20 mM Tris-HCl). Extracted genomic DNA was used as a template for B. thetaiotaomicron PCR amplification and quantification using a real-time PCR machine (Quant Studio 5) and SYBR Green PCR technology (Applied Biosystems, Thermo Fisher Scientific). B. thetaiotaomicron was quantified using species specific primers that have been established and validated before (39) ([…] and […]) with a cycling protocol of denaturation at 95° C. (2 min), 40 cycles of 95° C. (20 sec), 58° C. (20 sec) and 72° C. (30 sec). Each 17 μl qPCR mixture consisted of 8.5 μl of 2×SYBR Green MasterMix (Applied Biosystems, Thermo Fisher Scientific), 1.7 μl of BSA (100 μg/ml), 0.6 μl of each primer (10 μM), 3.60 μl PCR-grade water and 2 μl of extracted genomic DNA. DNA extracted from B. theta ATCC29148 was used to construct a standard curve with 10-fold dilutions of DNA templates of known concentrations. Concentrations of DNA used in the standard curves ranged from 33.75 ng/μl equivalent to 10^7 bacteria to 0.035 pg/μl equivalent to 10^1 bacteria. […]

Compound | accumulation of TCR-transgenic CD4^+ T cells in hearts (Rag1^−/− mice) | cardiac inflammation by flow cytometry (heart-infiltrating CD45^+ cells) (Rag1^−/− mice) | in vitro proliferation of CD4^+ T cells from TCRM mice [2] | IFN-γ reactivity of PBMC [3] | further results
[H]/N=C(/N)N[C@H]1[C@H](O)[C@@H](O)[C@H](O[C@@H]2O[C@@H](C)[C@](O)(C=O)[C@H]2O[C@@H]2O[C@@H](CO)[C@H](O)[C@@H](O)[C@@H]2NC)[C@@H](N/C(N)=N\[H])[C@@H]1O [Streptomycin] | significantly reduced accumulation | profound reduction | – | – | –
TFLILMAALTATFASAQK [B. theta β-gal peptide, TFLILMAALTATFASAQK] | – | – | induced in vitro proliferation | significantly higher IFN-γ reactivity | activation of TCRM T cells in vivo by peptide-pulsed dendritic cells (TCRM T cells): efficient activation of TCRM T cells in vivo; ex vivo re-stimulation of transgenic CD4^+ T cells (cytokine production) ([1]; heart and colon of 12 week old TCRM mice): ex vivo re-stimulation of transgenic CD4^+ T cells from heart and colon
CN[C@H](CC(C)C)C(=O)N[C@H]1C(=O)N[C@@H](CC(N)=O)C(=O)N[C@H]2C(=O)N[C@H]3C(=O)N[C@H](C(=O)N[C@H](C(=O)O)c4cc(O)cc(O)c4-c4cc3ccc4O)[C@H](O)c3ccc(c(Cl)c3)Oc3cc2cc(c3O[C@@H]2O[C@H](CO)[C@@H](O)[C@H](O)[C@H]2O[C@H]2C[C@](C)(N)[C@H](O)[C@H](C)O2)Oc2ccc(cc2Cl)[C@H]1O [Vancomycin] | significantly reduced accumulation | profound reduction | – | – | activity of Th1 cells (Rag1^−/− mice; IFN-γ production): reduced to a lesser extent; activation of heart-infiltrating and colonic Th17 cells (Rag1^−/− mice; IL-17 production): pronounced impact; cardiac disease (histopathology) (Rag1^−/− mice; day 28 post adoptive transfer): significantly ameliorated; B. theta levels in fecal samples (B. thetaiotaomicron): reduced
SLKLMATLFSSYATAD (listed as Homo sapiens) [SEQ ID NO: 17, human myosin heavy chain 6 peptide] | – | – | – | significantly higher IFN-γ reactivity | –
LLIGMMSTFSTYASAQET (Enterobacter cysteine hydrolase 10-27) [Enterobacter cloacae peptide, Enterobacter cysteine hydrolase10-27 peptide synthetized by Genscript] | – | – | not | – | –
RSLKLMATLFSTYASADR (MYH6 614-629) [MYH6 peptide, MYH6614-629 peptide synthetized by Genscript] | – | – | – | – | IFN-γ or IL-17 secretion upon ex-vivo re-stimulation ([1]; CD4^+ T cells from colonic lamina propria, TCRM vs DO11.10): only MYH6-specific CD4^+ T cells, but not ovalbumin-specific CD4^+ T cells from the colonic lamina propria were able to secrete IFN-γ or IL-17
